Results reported in US4223036A, “1-(1,3-Dioxolan-2-ylmethyl)-1H-1,2,4-triazoles” (Janssen Pharmaceutica N.V., priority 1979, dated 1980).
Where a name gives a salt, the structure may show the parent alone.

Assays:
[1] = test system: Candida albicans; assay: Activity against vaginal candidosis in rats (lowest oral dose active at the 14th day after infection); type: in vivo, Female Wistar rats; design: lowest effective oral dose (vaginal candidosis in rats): unit not given here; details: oral once a day for two days, active at 14th day after infection; for lowest effective oral dose (vaginal candidosis in rats): Table I; for minimal effective dose: Candida albicans, 336 h
Method: Experiment A: Activity of Compounds (I) Against Vaginal Candidosis in Rats
Female Wistar rats of ±100 g body weight were used. They were ovariectomized and hysterectomized and after three weeks of recovery, 100 μg of oestradiol undecylate in sesame oil was given subcutaneously once a week for 3 consecutive weeks. The thus induced pseudooestrus was controlled by microscopic examination of vaginal smears. Food and water were left available ad libitum.
The rats were infected intravaginally with 8.10^5 cells of Candida albicans, grown on Sabouraud broth for 48 hours at 37° C. and diluted with saline. The date of infection varied from day +25 to day +32 after surgical intervention, depending on the appearance of signs of induced pseudo-oestrus.
The drugs under investigation were administered orally once a day for two days starting from the day of infection. For each experiment there were placebo treated controls. The results were assessed by taking vaginal smears with sterile swabs on several days after infection. The swabs were put into Sabouraud broth in petri-dishes and incubated for 48 hours a 37° C. If no growth of Candida albicans occured, i.e., when the animals were negative at the end of the experiment, this was due to drug administration because it never happened in placebo treated controls.
The Tables I, II and III below give the lowest oral dose of the drug under investigation which was found active at the 14th day after infection.

[2] = test system: Candida albicans; assay: Activity against crop candidosis in turkeys (dose whereby crops of 50% of animals were completely negative); type: in vivo; details: medicated feed for 13 consecutive days
Method: Experiment B: Activity of Compounds (I) Against Crop Candidosis in Turkeys
Turkeys of 14 days old were infected in the crop with 4.10^6 Candida albicans cells, grown on Sabouraud broth for 48 hours at 37° C. and diluted with saline. The volume of the inoculum was 1 ml. The drug under investigation were premixed in 500 mg of lacton and thereafter admixed in 1000 g of meal without any additives. The concentration of the drug under investigation in the meal was expressed in mg/kg.
The animals were given the medicated feed for 13 consecutive days starting on the day of infection. At the end of the experiment all animals were sacrificed. At autopsy the crops were removed, emptied and grinded in an ultra-turrax mixer in 15 ml of sterile saline. Colony counting was done on Sabouraud agar and the results given in the Tables I, II and III represent the ED50, i.e., the dose of the drug whereby the crops of 50% of the animals were completely negative for Candida albicans.

| SMILES | lowest effective oral dose (vaginal candidosis in rats) [1] | ED50 (crop candidosis in turkeys) ([2]; Table I) | other results |
| --- | --- | --- | --- |
| Clc1ccc([C@@]2(Cn3ccnc3)OC[C@H](COc3ccc(N4CCN(Cc5ccccc5)CC4)cc3)O2)c(Cl)c1 (relative stereo) [drawing 46] | 2.5 | 31 mg/kg of feed | – |
| O=S(=O)(Cc1ccccc1)N1CCN(c2ccc(OC[C@H]3CO[C@](Cn4cncn4)(c4ccc(Cl)cc4Cl)O3)cc2)CC1 (relative stereo) [SO2CH2C6H5, cis-1-{4-[2-(2,4-dichlorophenyl)-2-(1H-1,2,4-triazol-1-ylmethyl)-1,3-dioxolan-4-ylmethoxy]phenyl}-4-(phenylmethylsulfonyl)piperazine monohydrate] | – | – | ED50 (crop candidosis in turkeys) ([2]; Table II): 16 mg/kg of feed |
| O=CNc1ccc(OC[C@H]2CO[C@](Cn3ccnc3)(c3ccc(Cl)cc3Cl)O2)cc1 (relative stereo) [NHCHO, cis-N-{4-[2-(2,4-dichlorophenyl)-2-(1H-imidazol-1-yl-methyl)-1,3-dioxolan-4-ylmethoxy]phenyl}formamide] | 2.5 | 31 mg/kg of feed | – |
| CCCN1CCN(c2ccc(OC[C@H]3CO[C@](Cn4ccnc4)(c4ccc(Cl)cc4Cl)O3)cc2)CC1 (relative stereo) | 2.5 | 16 mg/kg of feed | – |
| O=C(Nc1ccc(OC[C@H]2CO[C@](Cn3ccnc3)(c3ccc(Cl)cc3Cl)O2)cc1)c1ccc(Br)cc1 (relative stereo) | 10 | 31 mg/kg of feed | – |
| CNC(=O)Nc1ccc(OC[C@H]2CO[C@](Cn3ccnc3)(c3ccc(Cl)cc3Cl)O2)cc1 (relative stereo) [NHCONHCH3, cis-N-{4-[2-(2,4-dichlorophenyl)-2-(1H-imidazol-1-ylmethyl)-1,3-dioxolan-4-ylmethoxy]phenyl}-N'-methylurea] | 10 | 125 mg/kg of feed | – |
| CCOC(=O)N1CCN(c2cccc(OC[C@H]3CO[C@](Cn4ccnc4)(c4ccc(Cl)cc4Cl)O3)c2)CC1 (relative stereo) | – | – | minimal effective dose ([1]; Table III): 2.5 mg/kg |
| CNC(=O)N1CCN(c2ccc(OC[C@H]3CO[C@](Cn4ccnc4)(c4ccc(Cl)cc4Cl)O3)cc2)CC1 (relative stereo) | 2.5 | 16 mg/kg of feed | – |
| CC(=O)Nc1cccc(OC[C@H]2CO[C@](Cn3ccnc3)(c3ccc(Cl)cc3Cl)O2)c1 (relative stereo) [3 (NHCOCH3), cis-N-{3-[2-(2,4-dichlorophenyl)-2-(1H-imidazol-1-ylmethyl)-1,3-dioxolan-4-ylmethoxy]phenyl}acetamide nitrate] | – | – | minimal effective dose ([1]; Table III): 10 mg/kg; ED50 (crop candidosis in turkeys) ([2]; Table III): 63 mg/kg of feed |
| COc1ccc(C2(Cn3ccnc3)OCC(COc3ccc(N4CCN(C(C)=O)CC4)cc3)O2)cc1 (centres unmarked) [1-acetyl-4-{4-[2-(1H-imidazol-1-ylmethyl)-2-(4-methoxyphenyl)-1,3-dioxolan-4-ylmethoxy]phenyl}piperazine] | – | – | ED50 (crop candidosis in turkeys) ([2]; Table III): 31 mg/kg of feed |
| CN1CCN(c2ccc(OC[C@H]3CO[C@](Cn4ccnc4)(c4ccc(Cl)cc4Cl)O3)cc2)CC1 (relative stereo) | 2.5 | – | – |
| CCCCN1CCN(c2ccc(OC[C@H]3CO[C@](Cn4ccnc4)(c4ccc(Cl)cc4Cl)O3)cc2)CC1 (relative stereo) | – | 31 mg/kg of feed | – |
| CC(C)N1CCN(c2ccc(OC[C@H]3CO[C@](Cn4cncn4)(c4ccc(Cl)cc4Cl)O3)cc2)CC1 (relative stereo) [CH(CH3)2] | – | – | minimal effective dose ([1]; Table II): 2.5 mg/kg |
| O=S(=O)(Cc1ccccc1)N1CCN(c2ccc(OC[C@H]3CO[C@](Cn4ccnc4)(c4ccc(Cl)cc4Cl)O3)cc2)CC1 (relative stereo) | – | 16 mg/kg of feed | – |
| CC(C)CN1CCN(c2ccc(OC[C@H]3CO[C@](Cn4ccnc4)(c4ccc(Cl)cc4Cl)O3)cc2)CC1 (relative stereo) | – | 16 mg/kg of feed | – |
| NC(=S)Nc1ccc(OC[C@H]2CO[C@](Cn3ccnc3)(c3ccc(Cl)cc3Cl)O2)cc1 (relative stereo) [NHCSNH2, cis-N-{4-[2-(2,4-dichlorophenyl)-2-(1H-imidazol-1-yl-methyl)-1,3-dioxolan-4-ylmethoxy]phenyl}thiourea] | 20 | – | – |

| SMILES | lowest effective oral dose (vaginal candidosis in rats) [1] | ED50 (crop candidosis in turkeys) ([2]; Table I) | other results |
| --- | --- | --- | --- |
| CCOC(=O)N1CCN(c2ccc(OCC3COC(Cn4ccnc4)(c4ccc(OC)cc4)O3)cc2)CC1 (centres unmarked) [ethyl 4-{4-[2-(1H-imidazol-1-ylmethyl)-2-(4-methoxyphenyl)-1,3-dioxolan-4-ylmethoxy]phenyl}-1-piperazinecarboxylate (E)-2-butenedioate (2:1)] | – | – | minimal effective dose ([1]; Table III): 2.5 mg/kg |
| O=C(Nc1ccc(OC[C@H]2CO[C@](Cn3ccnc3)(c3ccc(Cl)cc3Cl)O2)cc1)c1ccc(Cl)cc1 (relative stereo) | – | 31 mg/kg of feed | – |
| O=C(c1ccccc1)N1CCN(c2ccc(OC[C@H]3CO[C@](Cn4cncn4)(c4ccc(Cl)cc4Cl)O3)cc2)CC1 (relative stereo) [COC6 H5, cis-1-benzoyl-4-{4-[2-(2,4-dichlorophenyl)-2-(1H-1,2,4-triazol-1-ylmethyl)-1,3-dioxolan-4-ylmethoxy]phenyl}piperazine] | – | – | minimal effective dose ([1]; Table II): 1.25 mg/kg |
| CCCC(=O)N1CCN(c2ccc(OC[C@H]3CO[C@](Cn4cncn4)(c4ccc(Cl)cc4Cl)O3)cc2)CC1 (relative stereo) [CO(CH2)2CH3, cis-1-{4-[2-(2,4-dichlorophenyl)-2-(1H-1,2,4-triazol-1-ylmethyl)-1,3-dioxolan-4-ylmethoxy]phenyl}-4-(1-oxobutyl)piperazine dihydrochloride] | – | – | ED50 (crop candidosis in turkeys) ([2]; Table II): 16 mg/kg of feed |
| COC(=O)N1CCN(c2ccc(OC[C@H]3CO[C@](Cn4cncn4)(c4ccc(Cl)cc4Cl)O3)cc2)CC1 (relative stereo) [COOCH 3, cis-methyl 4-{4-[2-(2,4-dichlorophenyl)-2-(1H-1,2,4-triazol-1-ylmethyl)-1,3-dioxolan-4-ylmethoxy]phenyl}-1-piperazinecarboxylate] | – | – | ED50 (crop candidosis in turkeys) ([2]; Table II): 8 mg/kg of feed |
| O=C(Oc1ccccc1)N1CCN(c2ccc(OC[C@H]3CO[C@](Cn4cncn4)(c4ccc(Cl)cc4Cl)O3)cc2)CC1 (relative stereo) [COOC6 H5, cis-phenyl 4-{4-[2-(2,4-dichlorophenyl)-2-(1H-1,2,4-triazol-1-ylmethyl)-1,3-dioxolan-4-ylmethoxy]phenyl}-1-piperazinecarboxylate] | – | – | ED50 (crop candidosis in turkeys) ([2]; Table II): 16 mg/kg of feed |
| CCC(=O)N1CCN(c2ccc(OC[C@H]3CO[C@](Cn4cncn4)(c4ccc(Cl)cc4Cl)O3)cc2)CC1 (relative stereo) [COC2 H5, cis-1{4-[2-(2,4-dichlorophenyl)-2-(1H-1,2,4-triazol-1-ylmethyl)-1,3-dioxolan-4-ylmethoxy]phenyl}-4-(1-oxopropyl)piperazine dihydrochloride] | – | – | ED50 (crop candidosis in turkeys) ([2]; Table II): 8 mg/kg of feed |
| CC(C)N1CCN(c2ccc(OC[C@H]3CO[C@](Cn4ccnc4)(c4ccc(Cl)cc4Cl)O3)cc2)CC1 (relative stereo) | 2.5 | – | – |
| CNc1ccc(OC[C@H]2CO[C@](Cn3ccnc3)(c3ccc(Cl)cc3Cl)O2)cc1 (relative stereo) [NHCH3, cis-4-[2-(2,4-dichlorophenyl)-2-(1H-imidazol-1-ylmethyl)-1,3-dioxolan-4-ylmethoxy]-N-methylbenzenamine] | 5 | – | – |
| CCN1CCN(c2ccc(OC[C@H]3CO[C@](Cn4ccnc4)(c4ccc(Cl)cc4Cl)O3)cc2)CC1 (relative stereo) [drawing 49] | < 2.5 | – | – |
| NC(=O)CN1CCN(c2ccc(OC[C@H]3CO[C@](Cn4ccnc4)(c4ccc(Cl)cc4Cl)O3)cc2)CC1 (relative stereo) | 1.25 | – | – |
| CCOC(=O)N1CCN(c2ccc(OC[C@H]3CO[C@](Cn4cncn4)(c4ccc(Cl)cc4Cl)O3)cc2)CC1 (relative stereo) [COOC2 H5, cis-ethyl 4-{4-[2-(2,4-dichlorophenyl)-2-(1H-1,2,4-triazol-1-ylmethyl)-1,3-dioxolan-4-ylmethoxy]phenyl}1-piperazinecarboxylate dihydrochloride] | – | – | ED50 (crop candidosis in turkeys) ([2]; Table II): 8 mg/kg of feed |
| O=CN1CCN(c2ccc(OC[C@H]3CO[C@](Cn4ccnc4)(c4ccc(Cl)cc4Cl)O3)cc2)CC1 (relative stereo) | < 10 | – | – |
| CCCCN1CCN(c2ccc(OC[C@H]3CO[C@](Cn4cncn4)(c4ccc(Cl)cc4Cl)O3)cc2)CC1 (relative stereo) [(CH2)3CH3] | – | – | ED50 (crop candidosis in turkeys) ([2]; Table II): 16 mg/kg of feed |
| CCCN1CCN(c2ccc(OC[C@H]3CO[C@](Cn4cncn4)(c4ccc(Cl)cc4Cl)O3)cc2)CC1 (relative stereo) [(CH2)2CH3] | – | – | ED50 (crop candidosis in turkeys) ([2]; Table II): 16 mg/kg of feed |
